Each block holds one compound with its values, some of them ahead of it.
Tests used:
[1] = biological target: T1, hEP4 (Homo sapiens, UniProt P35408); assay: hEP4 cAMP assay; format: cell-based; details: HEK293 cells overexpressing hEP4; PGE2 20 nM as agonist; median of multiple experiments; read-out: IC50 (nM) EP4 cAMP
T1 construct: expressed in transfected cells; host or cells: HEK293
Method: Experimental Example 1.2: hEP4 cAMP Assay
(§1) HEK293 cells overexpressing hEP4 were cultured in growth medium (GM:MEM (Gibco™, 11095080)/10% HI FBS (Gibco™, 10082147)/1% penicillin/streptomycin). Before the experiment, the growth medium was removed, and starvation medium (HBSS (Gibco™ 14025076)/10% GM) was added. Thereafter, the cells were incubated for 4 hours. HEK293 cells harboring hEP4 were detached from the culture dish with a non-enzymatic cell dissociation buffer (Gibco™, 15040066). The cells were resuspended in assay buffer (AB:HBSS, 0.1% BSA stabilizer, 0.5 mM IBMX, 5 mM HEPES).
(§2) 1,000 cells in 5 μL of AB were seeded per well in a 384 well plate (Corning®, 3570), and stock solutions of test compounds were prepared at a concentration of 1 mM in DMSO and serially diluted in DMSO to the concentration required for the inhibition dose response curve (test concentration range of […]-0.001 nM). […]
(§3) 5 μL of each donor (Eu-cAMP tracer) and acceptor (ULight-anti-cAMP) was added, and the plate was incubated in the dark for 1 hour at room temperature, and then a Varioskan LUX multimode microplate reader was used to obtain the results (excitation: 334 nm, emission: 615 and 665 nm). The resulting FRET fluorescence value (665 nm/615 nm*10000) was converted and then calculated as a percentage of cAMP compared to the DMSO control value. […]

[2] = biological target: T2, hEP2 (Homo sapiens, UniProt P43116); assay: hEP2 cAMP assay; format: cell-based; details: HEK293 cells overexpressing hEP2; PGE2 400 pM as agonist; median of multiple experiments; read-out: IC50 (nM) EP2 cAMP
T2 construct: expressed in transfected cells; host or cells: HEK293
Method: Experimental Example 1.1: hEP2 cAMP Assay
as §1, with “hEP2” for “hEP4”, “hours. The” for “hours.”
as §2
as §3, with “relative” for “compared”

[3] = tested on: CT26 cells; assay: Anticancer efficacy in mouse-derived colorectal carcinoma CT26 tumor model (tumor size); format: in vivo
Method: Experimental Example 2.1. Evaluation of Anticancer Efficacy of Combination Administration in Mouse-Derived Colorectal Carcinoma Tumor Model: CT26
(§4) CT26 cells were subcultured and maintained in a cell incubator (CO2 incubator) under 37° C., 500 CO2 conditions using RPMI-1640 medium containing 10% FBS (fetal bovine serum). For the tumor animal model, CT26 cells were resuspended at a concentration of 533 10^5 cells/100 μL, and 100 μL per each mouse was transplanted into the subcutaneous region of the right flank of 6 to 7 week-old BALB/c mice (Shanghai Lingchang Biotechnology Co., Ltd, Shanghai) to prepare a CT26 tumor model.
The tumor size was calculated by measuring the short axis and the long axis using a vernier caliper and substituting them into Equation 1 below.
tumor size (volume, mm^3)=(short axis, mm)^2×(long axis, mm)×0.5 [Equation 1]
(§5) When the tumor size reached an average of 70 to 100 mm^3, the mice were randomly divided into groups for the evaluation of drug efficacy (average tumor size per group=79 mm^3). The drug efficacy was evaluated by substituting the measured tumor size into Equation 2 to calculate and compare the tumor growth inhibitory ability between groups.
tumor growth inhibitory ability=[{(control group tumor size at the time of measurement,C)−(control group tumor size at the start of administration,C0)}−{(test group tumor size at the time of measurement,T)−(test group tumor size at the start of administration,T0)}]/{(control group tumor size at the time of measurement,C)−(control group tumor size at the start of administration,C0)} [Equation 2]
Drug administration was carried out for 12 days from the day after the test groups were grouped into a group treated with A01 (Example 34b), a group treated with an anti-PD-1 antibody, an immune checkpoint inhibitor, and a group treated with A01 and an anti-PD-1 antibody in combination. The anti-PD-1 antibody (BioXcell, Cat #BP0146) was diluted in PBS and intraperitoneally administered once every 3 days at a concentration of 200 μg/mouse. […]

[4] = Body weight of mice in CT26 tumor model; format: in vivo, mouse; details: BALB/c mice
Method: as §4
(§6) Drug administration was carried out for 12 days from the day after the test groups were grouped into a group treated with A01 (Example 34b), a group treated with an anti-PD-1 antibody, an immune checkpoint inhibitor, and a group treated with A01 and an anti-PD-1 antibody in combination. The anti-PD-1 antibody (BioXcell, Cat #BP0146) was diluted in PBS and intraperitoneally administered once every 3 days at a concentration of 200 μg/mouse. A01 was used as an excipient by adding Tween 80 to 0.5% methycellulose (40000 cp) aqueous solution until it reached 0.2%, and A01 was suspended as an excipient and orally administered daily at a concentration of 150 mg/kg.

[5] = Body weight of mice in MC38 tumor model; format: in vivo, mouse; details: C57B/6 mice
Method: as §4, with “MC38” for “CT26”, “subcultured” for “subcultured and maintained”, “5%” for “500”, “DMEM” for “RPMI-1640”, “1×10^6” for “533 10^5”, “C57B/6” for “BALB/c”
as §6, with “18” for “12”, “A02” for “A01”, “1b),” for “34b),”

[6] = tested on: MC38 cells; assay: Anticancer efficacy in mouse-derived colorectal carcinoma MC38 tumor model (tumor size); format: in vivo
Method: Experimental Example 2.2. Evaluation of Anticancer Efficacy of Combination Administration in Mouse-Derived Colorectal Carcinoma Tumor Model: MC38
as §4, with “MC38” for “CT26”, “subcultured” for “subcultured and maintained”, “5%” for “500”, “DMEM” for “RPMI-1640”, “1×10^6” for “533 10^5”, “C57B/6” for “BALB/c”
The tumor size was calculated by measuring in the same manner as in Experimental Example 2.1.
as §5, with “size=91” for “size per group=79”, “2 of Experimental Example 2.1” for “2”
as §6, with “18” for “12”, “A02” for “A01”, “1b),” for “34b),”

T1 sequence (P35408 whole entry): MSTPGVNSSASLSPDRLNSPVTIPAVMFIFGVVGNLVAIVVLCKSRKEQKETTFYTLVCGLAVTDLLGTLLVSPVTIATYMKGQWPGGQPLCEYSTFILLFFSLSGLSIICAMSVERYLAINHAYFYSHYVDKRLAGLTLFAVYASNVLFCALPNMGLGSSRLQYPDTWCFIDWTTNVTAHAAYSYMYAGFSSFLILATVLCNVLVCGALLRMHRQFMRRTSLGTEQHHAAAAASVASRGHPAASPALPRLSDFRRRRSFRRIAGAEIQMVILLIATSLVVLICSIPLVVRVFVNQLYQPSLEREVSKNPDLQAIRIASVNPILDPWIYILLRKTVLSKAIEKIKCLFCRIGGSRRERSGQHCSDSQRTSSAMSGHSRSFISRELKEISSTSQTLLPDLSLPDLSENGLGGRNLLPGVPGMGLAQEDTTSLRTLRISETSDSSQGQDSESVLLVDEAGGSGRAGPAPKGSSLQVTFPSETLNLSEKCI
T2 sequence (P43116 whole entry): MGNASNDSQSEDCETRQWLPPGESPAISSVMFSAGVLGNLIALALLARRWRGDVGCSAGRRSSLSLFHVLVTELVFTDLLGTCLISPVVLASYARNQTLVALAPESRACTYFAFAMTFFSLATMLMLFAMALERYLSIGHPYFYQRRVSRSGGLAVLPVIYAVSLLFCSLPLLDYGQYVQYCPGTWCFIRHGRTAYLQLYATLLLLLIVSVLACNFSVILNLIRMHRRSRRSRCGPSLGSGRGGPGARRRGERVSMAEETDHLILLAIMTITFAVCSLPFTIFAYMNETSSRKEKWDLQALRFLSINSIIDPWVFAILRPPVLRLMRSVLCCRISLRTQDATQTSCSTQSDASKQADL

- IC50 [1]: ≤ 500 nM
SMILES: COc1cc(-c2ccc(Cc3c(C)sc(C)c3C(=O)NC3CC4(C3)CC(C(=O)O)C4)cc2)cc(N2CCC2=O)c1 [Example 63, (2R, 4R, 6R)-6-(4-((3′-methoxy-5′-(2-oxoazetidin-1-yl)-[1,1′-biphenyl]-4-yl)methyl)-2,5-dimethylthiophene-3-carboxamido)spiro[3.3]heptane-2-carboxylic acid]

- IC50 [2]: > 10000 nM
- IC50 [1]: > 10000 nM
SMILES: O=C(N[C@]12C[C@](C(=O)O)(C1)C2)c1csc2ccn(Cc3ccc(-c4ccccc4)cc3)c12 [Example 87, 3-(4-([1,1′-biphenyl]-4-ylmethyl)-4H-thieno[3,2-b]pyrrole-3-carboxamido)bicyclo[1.1.1]pentane-1-carboxylic acid]

SMILES: COc1cc(F)cc(-c2ccc(Cc3c(C)sc(C)c3C(=O)NC3CC4(C3)CC(C(=O)O)C4)cc2)c1 (stereo not shown) [Example A01]
- tumor growth inhibition rate compared to control group ([3]; 12 days administration, A01 150 mg/kg oral daily, anti-PD-1 antibody 200 μg/mouse i.p. once every 3 days, Equation 2): 38.5%
- tumor size at end point of the test ([3]; BALB/c mice, 12 days administration, A01 150 mg/kg oral daily, anti-PD-1 antibody 200 μg/mouse i.p. once every 3 days): 1092.6±237.5 mm^3
- tumor size at start point of the test ([3]; BALB/c mice, start of drug administration): 79.4±2.3 mm^3
- body weight at end point of the test ([4]; 12 days administration, A01 150 mg/kg oral daily, anti-PD-1 antibody 200 μg/mouse i.p. once every 3 days): 22.2 ± 0.6 g
- body weight at start point of the test ([4]; start of drug administration): 20.4 ± 0.4 g

SMILES: Cc1sc(C)c(C(=O)NC2CC3(C2)CC(C(=O)O)C3)c1Cc1ccc(-c2ccccc2)cc1 (stereo not shown) [Example A02]
- body weight at end point of the test ([5]; 18 days administration, A02 150 mg/kg oral daily, anti-PD-1 antibody 200 μg/mouse i.p. once every 3 days): 22.0 ± 0.4 g
- body weight at start point of the test ([5]; start of drug administration): 19.1 ± 0.2 g
- tumor growth inhibition rate compared to control group ([6]; 18 days administration, A02 150 mg/kg oral daily, anti-PD-1 antibody 200 μg/mouse i.p. once every 3 days, Equation 2): 32.7%
- tumor size at end point of the test ([6]; C57B/6 mice, 18 days administration, A02 150 mg/kg oral daily, anti-PD-1 antibody 200 μg/mouse i.p. once every 3 days): 1711.0±236.4 mm^3
- tumor size at start point of the test ([6]; C57B/6 mice, start of drug administration): 91.5±3.1 mm^3

Reference: patent US20250161271A1, “PHARMACEUTICAL COMPOSITION FOR TREATING CANCER, COMPRISING ANTICANCER AGENT AND NOVEL COMPOUND HAVING INHIBITORY ACTIVITY WITH RESPECT TO PROSTAGLANDIN E2 RECEPTORS” (KANAPH THERAPEUTICS INC., priority 2022, published 2025)
